Holding throughout (assay type): biochemical
Experiment [1] addresses JAK3 (Homo sapiens (Human), UniProt P52333). The experiment is described as follows: JAK enzymatic assay (peptide mobility shift), JAK3. Conditions: recombinant JAK3 1 nM, JAKtide peptide, 90 minutes.
Experiment [2] addresses JAK2 (Homo sapiens (Human), UniProt O60674). The experiment is described as follows: JAK enzymatic assay (peptide mobility shift), JAK2. The following applies: recombinant JAK2 2 nM, JAKtide peptide, 150 minutes.
Experiment [3] deals with JAK1 (Homo sapiens (Human), UniProt P23458). The experiment is described as follows: JAK enzymatic assay (peptide mobility shift), JAK1. Conditions: recombinant JAK1 20 nM, IRS-1 peptide, 240 minutes.
JAK1, sequence (P23458 whole entry): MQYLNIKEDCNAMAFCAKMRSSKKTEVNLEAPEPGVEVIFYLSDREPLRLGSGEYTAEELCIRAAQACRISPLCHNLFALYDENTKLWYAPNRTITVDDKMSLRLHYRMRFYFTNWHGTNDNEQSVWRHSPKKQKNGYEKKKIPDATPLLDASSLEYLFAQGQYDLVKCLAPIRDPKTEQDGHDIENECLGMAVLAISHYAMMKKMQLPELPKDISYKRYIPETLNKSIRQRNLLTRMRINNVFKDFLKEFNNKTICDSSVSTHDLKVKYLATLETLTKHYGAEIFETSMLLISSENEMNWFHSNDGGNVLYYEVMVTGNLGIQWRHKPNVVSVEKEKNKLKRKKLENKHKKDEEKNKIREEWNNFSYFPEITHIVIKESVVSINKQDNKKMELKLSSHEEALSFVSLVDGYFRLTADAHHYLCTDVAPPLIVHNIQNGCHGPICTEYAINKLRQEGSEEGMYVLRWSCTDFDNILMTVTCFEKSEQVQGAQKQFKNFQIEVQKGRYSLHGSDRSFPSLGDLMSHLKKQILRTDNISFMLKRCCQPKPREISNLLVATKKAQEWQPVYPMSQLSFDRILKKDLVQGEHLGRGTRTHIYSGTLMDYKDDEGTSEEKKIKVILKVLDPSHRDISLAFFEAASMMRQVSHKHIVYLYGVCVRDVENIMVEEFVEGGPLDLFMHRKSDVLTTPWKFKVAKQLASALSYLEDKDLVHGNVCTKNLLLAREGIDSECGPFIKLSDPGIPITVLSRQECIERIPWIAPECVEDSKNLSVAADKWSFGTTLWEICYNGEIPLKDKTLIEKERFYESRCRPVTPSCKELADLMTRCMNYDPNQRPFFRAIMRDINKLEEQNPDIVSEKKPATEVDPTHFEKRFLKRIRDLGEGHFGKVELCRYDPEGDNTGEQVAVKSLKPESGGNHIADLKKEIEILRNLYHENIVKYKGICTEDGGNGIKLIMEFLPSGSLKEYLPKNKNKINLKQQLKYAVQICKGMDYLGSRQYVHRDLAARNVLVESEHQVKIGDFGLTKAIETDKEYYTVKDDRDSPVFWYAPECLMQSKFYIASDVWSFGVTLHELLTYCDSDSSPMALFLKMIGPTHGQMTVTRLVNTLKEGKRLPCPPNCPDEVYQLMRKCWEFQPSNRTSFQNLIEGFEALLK

JAK3, sequence (P52333 781-1124): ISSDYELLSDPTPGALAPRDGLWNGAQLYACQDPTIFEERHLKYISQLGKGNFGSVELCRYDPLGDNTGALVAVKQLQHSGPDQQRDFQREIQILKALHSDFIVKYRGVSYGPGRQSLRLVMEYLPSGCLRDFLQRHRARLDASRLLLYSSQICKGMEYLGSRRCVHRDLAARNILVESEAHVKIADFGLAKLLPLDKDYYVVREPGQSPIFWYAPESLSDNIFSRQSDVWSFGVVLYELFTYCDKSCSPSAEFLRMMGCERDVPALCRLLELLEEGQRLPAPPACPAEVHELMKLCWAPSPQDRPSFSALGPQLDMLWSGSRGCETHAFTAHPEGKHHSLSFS
JAK2, sequence (O60674 808-1132): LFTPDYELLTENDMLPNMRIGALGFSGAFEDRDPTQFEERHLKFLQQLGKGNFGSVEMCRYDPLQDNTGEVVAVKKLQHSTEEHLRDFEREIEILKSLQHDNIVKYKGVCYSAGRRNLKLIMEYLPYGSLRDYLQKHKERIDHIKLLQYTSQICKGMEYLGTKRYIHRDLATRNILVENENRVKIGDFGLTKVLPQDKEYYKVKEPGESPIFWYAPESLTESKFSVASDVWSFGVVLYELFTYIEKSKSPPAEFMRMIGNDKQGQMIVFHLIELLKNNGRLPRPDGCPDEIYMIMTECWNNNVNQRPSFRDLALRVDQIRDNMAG

`CO[C@@H]1CCN(S(=O)(=O)C[C@H]2CC[C@H](N(C)c3ncnc4[nH]ccc34)CC2)C1` [Example 68, N-[trans-4-({[(3R)-3-methoxypyrrolidin-1-yl]sulfonyl}methyl)cyclo-hexyl]-N-methyl-7H-pyrrolo[2,3-d]pyrimidin-4-amine]: the IC50 in experiment [1] is 468 nM; in experiment [2], 41.8 nM; in experiment [3], 11.9 nM.

Regarding `COC[C@H]1CCCN1S(=O)(=O)C[C@H]1CC[C@H](N(C)c2ncnc3[nH]ccc23)CC1` [Example 69, N-[trans-4-({[(2R)-2-(methoxymethyl)pyrrolidin-1-yl]sulfonyl}methyl)-cyclohexyl]-N-methyl-7H-pyrrolo[2,3-d]pyrimidin-4-amine], the IC50 came to 370 nM in experiment [1], 56.2 nM in experiment [2] and 9.55 nM in experiment [3].

Consider `CN(c1ncnc2[nH]ccc12)[C@H]1CC[C@H](CS(=O)(=O)N2CC[C@H](F)C2)CC1` [Example 70, N-[trans-4-({[(3S)-3-fluoropyrrolidin-1-yl]sulfonyl}methyl)cyclo-hexyl]-N-methyl-7H-pyrrolo[2,3-d]pyrimidin-4-amine], for which the IC50 in experiment [1] worked out at 319 nM; in experiment [2] it was 36.4 nM; in experiment [3], 20.8 nM.

As to `CN(c1ncnc2[nH]ccc12)[C@H]1CC[C@H](CS(=O)(=O)N2C[C@@H](O)[C@@H](O)C2)CC1` [Example 71, (3R,4S)-1-[({trans-4-[methyl(7H-pyrrolo[2,3-d]-pyrimidin-4-yl)amino]-cyclohexyl}methyl)sulfonyl] pyrrolidine-3,4-diol], the IC50 in experiment [1] is 80.8 nM; in experiment [2], 8.54 nM; in experiment [3], 2.52 nM.

Turning to `CN(c1ncnc2[nH]ccc12)[C@H]1CC[C@H](CS(=O)(=O)N2C[C@@H](O)[C@H](O)C2)CC1` [Example 72, (3R,4R)-1-[({trans-4-[methyl(7H-pyrrolo[2,3-d]-pyrimidin-4-yl)amino]-cyclohexyl}methyl)sulfonyl] pyrrolidine-3,4-diol], the half-maximal inhibitory concentration (IC50) in experiment [1] amounted to 173 nM; in experiment [2] it was 39.6 nM; in experiment [3], 5.92 nM.

On to `COC[C@@H]1CCN(S(=O)(=O)C[C@H]2CC[C@H](N(C)c3ncnc4[nH]ccc34)CC2)C1` [Example 73, N-[trans-4-({[3-(methoxy-methyl)pyrrolidin-1-yl]-sulfonyl}methyl)-cyclohexyl]-N-methyl-7H-pyrrolo[2,3-d]pyrimidin-4-amine], for which the figures for the IC50 in experiment [1], in experiment [2] and in experiment [3] were 138 nM, 22.5 nM and 1.69 nM, respectively.

Turning to `CC[C@@]1(CO)CCN(S(=O)(=O)C[C@H]2CC[C@H](N(C)c3ncnc4[nH]ccc34)CC2)C1` [Example 74, {3-ethyl-1-[({trans-4-[methyl(7H-pyrrolo[2,3-d]-pyrimidin-4-yl)amino]-cyclohexyl}methyl)sulfonyl]-pyrrolidin-3-yl}methanol], the IC50 was determined as 495 nM in experiment [1], 55.2 nM in experiment [2] and 17.3 nM in experiment [3].

For `CN(c1ncnc2[nH]ccc12)[C@H]1CC[C@H](CS(=O)(=O)N2CC[C@H](NC(=O)C(F)(F)F)C2)CC1` [Example 75, 2,2,2-trifluoro-N-{(3S)-1-[({trans-4-[methyl(7H-pyrrolo[2,3-d]pyrimidin-4-yl)amino]cyclohexyl}methyl)-sulfonyl]pyrrolidin-3-yl}acetamide], the results for the IC50 in experiment [1], in experiment [2] and in experiment [3] were 399 nM, 62.2 nM and 19.1 nM, respectively.

As to `CN(c1ncnc2[nH]ccc12)[C@H]1CC[C@H](CS(=O)(=O)N2CC[C@H](S(C)(=O)=O)C2)CC1` [Example 76, N-methyl-N-[trans-4-({[3-(methylsulfonyl)pyrrolidin-1-yl]sulfonyl}methyl)-cyclohexyl]-7H-pyrrolo[2,3-d]pyrimidin-4-amine], the figures for the half-inhibitory concentration (IC50) in experiment [1], in experiment [2] and in experiment [3] were 125 nM, 27.2 nM and 2.98 nM, respectively.

On to `CN(C)C(=O)CO[C@@H]1CCN(S(=O)(=O)C[C@H]2CC[C@H](N(C)c3ncnc4[nH]ccc34)CC2)C1` [Example 77, N,N-dimethyl-2-({(3R)-1-[({trans-4-[methyl(7H-pyrrolo[2,3-d]pyrimidin-4-yl)amino]cyclohexyl}-methyl)sulfonyl]pyrrolidin-3-yl}oxy)acetamide], for which the IC50 in experiment [1] is 644 nM; in experiment [2], 50.2 nM; in experiment [3] it was 10.1 nM.

`CN(c1ncnc2[nH]ccc12)[C@H]1CC[C@H](CS(=O)(=O)N2C[C@@H](F)[C@H](F)C2)CC1` [Example 78, N-[trans-4-({[(3R,4R)-3,4-difluoropyrrolidin-1-yl]sulfonyl}methyl)cyclo-hexyl]-N-methyl-7H-pyrrolo[2,3-d]pyrimidin-4-amine]: the IC50 worked out at 275 nM in experiment [1], 34.3 nM in experiment [2] and 13.8 nM in experiment [3].

For the molecule `CN(c1ncnc2[nH]ccc12)[C@H]1CC[C@H](CS(=O)(=O)N2C[C@](C)(CO)[C@](C)(CO)C2)CC1` [Example 79, {(3R,4S)-3,4-dimethyl-1-[({trans-4-[methyl(7H-pyrrolo[2,3-d]pyrimidin-4-yl)amino]cyclohexyl}methyl)-sulfonyl]pyrrolidine-3,4-diyl}dimethanol], the figures for the IC50 in experiment [1], in experiment [2] and in experiment [3] were 580 nM, 55.6 nM and 14.4 nM, respectively.

As for `C[C@H]1CN(S(=O)(=O)C[C@H]2CC[C@H](N(C)c3ncnc4[nH]ccc34)CC2)C[C@@H]1CO` [Example 80, {(3R,4R)-4-methyl-1-[({trans-4-[methyl(7H-pyrrolo[2,3-d]pyrimidin-4-yl)amino]cyclohexyl}-methyl)sulfonyl]pyrrolidin-3-yl}methanol], the IC50 in experiment [1] is 205 nM; in experiment [2], 18.5 nM; in experiment [3], 3.03 nM.

`CNS(=O)(=O)[C@H]1CCN(S(=O)(=O)C[C@H]2CC[C@H](N(C)c3ncnc4[nH]ccc34)CC2)C1` [Example 81, N-methyl-1-[({trans-4-[methyl(7H-pyrrolo[2,3-d]-pyrimidin-4-yl)amino]-cyclohexyl}methyl)sulfonyl] pyrrolidine-3-sulfonamide]: the IC50 in experiment [1] turned out to be 90.6 nM; in experiment [2] it was 24.8 nM; in experiment [3], 2.78 nM.

With `CN(c1ncnc2[nH]ccc12)[C@H]1CC[C@H](CS(=O)(=O)N2CC[C@H](S(=O)(=O)Cc3ccccc3)C2)CC1` [Example 82, N-[trans-4-({[3-(benzyl-sulfonyl)pyrrolidin-1-yl]sulfonyl}-methyl)-cyclohexyl]-N-methyl-7H-pyrrolo[2,3-d]pyrimidin-4-amine], the IC50 in experiment [1] amounted to 146 nM; in experiment [2], 17.4 nM; in experiment [3], 7.34 nM.

Regarding `CN(c1ncnc2[nH]ccc12)[C@H]1CC[C@H](CS(=O)(=O)N2CC[C@H](S(=O)(=O)CCc3ccccc3)C2)CC1` [Example 83, N-methyl-N-{trans-4-[({3-[(2-phenylethyl)-sulfonyl]pyrrolidin-1-yl}sulfonyl)methyl]cyclo-hexyl}-7H-pyrrolo[2,3-d]pyrimidin-4-amine], the IC50 in experiment [1] is 133 nM; in experiment [2] it was 16.7 nM; in experiment [3], 4.79 nM.

In the case of `CN(c1ncnc2[nH]ccc12)[C@H]1CC[C@H](CS(=O)(=O)N2CC[C@@](O)(COc3cccc(F)c3)C2)CC1` [Example 84, 3-[(3-fluorophenoxy)-methyl]-1-[({trans-4-[methyl(7H-pyrrolo[2,3-d]-pyrimidin-4-yl)amino]-cyclohexyl}methyl)sulfonyl] pyrrolidin-3-ol], the IC50 in experiment [1] was 132 nM; in experiment [2] it was 26.2 nM; in experiment [3], 3.12 nM.

For `Cc1cc(CC[C@]2(O)CCN(S(=O)(=O)C[C@H]3CC[C@H](N(C)c4ncnc5[nH]ccc45)CC3)C2)on1` [Example 85, 3-[2-(3-methylisoxazol-5-yl)ethyl]-1-[({trans-4-[methyl(7H-pyrrolo[2,3-d]-pyrimidin-4-yl)amino]-cyclohexyl}methyl)sulfonyl] pyrrolidin-3-ol], the IC50 in experiment [1] was determined as 286 nM; in experiment [2] it was 46.2 nM; in experiment [3] it was 10.5 nM.

Consider `CN(c1ncnc2[nH]ccc12)[C@H]1CC[C@H](CS(=O)(=O)N2CC[C@H](c3ncccn3)C2)CC1` [Example 87, N-methyl-N-(trans-4-{[(3-pyrimidin-2-ylpyrrolidin-1-yl)sulfonyl]methyl}cyclo-hexyl)-7H-pyrrolo[2,3-d]pyrimidin-4-amine], for which the IC50 in experiment [1] was determined as 55.7 nM; in experiment [2], 5.72 nM; in experiment [3] it was 3.27 nM.

On to `CN(c1ncnc2[nH]ccc12)[C@H]1CC[C@H](CS(=O)(=O)N2CC[C@H](Oc3ccccc3C#N)C2)CC1` [Example 88, 2-({(3S)-1-[({trans-4-[methyl(7H-pyrrolo[2,3-d]-pyrimidin-4-yl)amino]-cyclohexyl}methyl)sulfonyl]pyrrolidin-3-yl}oxy)-benzonitrile], for which the IC50 in experiment [1] was 413 nM; in experiment [2], 23.4 nM; in experiment [3], 6.73 nM.

As for `COc1ccccc1CS(=O)(=O)[C@H]1CCN(S(=O)(=O)C[C@H]2CC[C@H](N(C)c3ncnc4[nH]ccc34)CC2)C1` [Example 89, N-{trans-4-[({3-[(2-methoxybenzyl)sulfonyl]-pyrrolidin-1-yl}sulfonyl)-methyl]cyclohexyl}-N-methyl-7H-pyrrolo[2,3-d]-pyrimidin-4-amine], the IC50 stood at 96.6 nM in experiment [1], 17.5 nM in experiment [2] and 4.45 nM in experiment [3].

In the case of `CN(c1ncnc2[nH]ccc12)[C@H]1CC[C@H](CS(=O)(=O)N2CC[C@@](O)(Cn3cccn3)C2)CC1` [Example 90, 1-[({trans-4-[methyl(7H-pyrrolo[2,3-d]pyrimidin-4-yl)amino]cyclohexyl}methyl)-sulfonyl]-3-(1H-pyrazol-1-ylmethyl)pyrrolidin-3-ol], the IC50 in experiment [1] worked out at 82.3 nM; in experiment [2] it was 9.3 nM; in experiment [3] it was 1.8 nM.

Turning to `CN(c1ncnc2[nH]ccc12)[C@H]1CC[C@H](CS(=O)(=O)N2CC[C@@](O)(c3ccccc3)C2)CC1` [Example 91, 1-[({trans-4-[methyl(7H-pyrrolo[2,3-d]pyrimidin-4-yl)amino]cyclohexyl}-methyl)sulfonyl]-3-phenylpyrrolidin-3-ol], the IC50 in experiment [1] is 76.6 nM; in experiment [2] it was 10.8 nM; in experiment [3], 1.92 nM.
